Measured values: ChEMBL document CHEMBL4828766 (J Med Chem, 2021)
Square brackets hold non-standard residues; d marks the D form. Peptide text beside a SMILES is read from it. dPhe(4-I) = N[C@H](Cc1ccc(I)cc1)C(=O)O; 2Nal = N[C@@H](Cc1ccc2ccccc2c1)C(=O)O; d2Nal = N[C@H](Cc1ccc2ccccc2c1)C(=O)O

Tests used:
Type in all cases: functional, cell-based
[1] = target: Melanocyte-stimulating hormone receptor (Mus musculus) (UniProt Q01727); experiment: Agonist activity at mouse MC1R expressed in HEK293 cells assessed as induction of cAMP level at 100 uM incubated for 2 hr by alphaScreen assay relative to NDP-MSH
Sequence of Melanocyte-stimulating hormone receptor (Mus musculus) (Q01727 whole entry, looked up): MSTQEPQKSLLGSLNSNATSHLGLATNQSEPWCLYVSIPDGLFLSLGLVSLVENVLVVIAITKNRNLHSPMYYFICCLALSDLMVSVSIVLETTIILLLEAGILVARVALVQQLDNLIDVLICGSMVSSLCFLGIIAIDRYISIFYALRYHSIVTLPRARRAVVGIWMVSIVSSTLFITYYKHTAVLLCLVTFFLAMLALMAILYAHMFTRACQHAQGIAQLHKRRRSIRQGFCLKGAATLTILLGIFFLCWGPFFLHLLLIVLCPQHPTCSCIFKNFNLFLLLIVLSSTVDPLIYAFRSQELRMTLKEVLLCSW

Melanocortin receptor 3 [2] = target: T1, Melanocortin receptor 3 (Mus musculus, UniProt P33033); experiment: Agonist activity at mouse MC3R expressed in HEK293 cells assessed as induction of cAMP level incubated for 2 hr by alphaScreen assay
T1 sequence (P33033 whole entry): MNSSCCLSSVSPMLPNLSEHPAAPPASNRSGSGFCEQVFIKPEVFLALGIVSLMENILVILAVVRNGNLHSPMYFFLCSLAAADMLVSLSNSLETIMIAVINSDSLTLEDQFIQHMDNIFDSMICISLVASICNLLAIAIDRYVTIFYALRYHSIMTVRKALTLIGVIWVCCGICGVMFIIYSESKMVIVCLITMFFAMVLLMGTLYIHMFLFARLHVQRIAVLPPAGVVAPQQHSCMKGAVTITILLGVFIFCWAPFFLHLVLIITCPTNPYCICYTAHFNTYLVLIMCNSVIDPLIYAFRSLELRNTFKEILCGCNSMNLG

Melanocortin receptor 3 [3] = target: T1, Melanocortin receptor 3; experiment: Antagonist activity at mouse melanocortin receptor 3 expressed in HEK293 cells assessed as inhibition of NDP-MSH-induced cAMP accumulation incubated for 2 hrs by cAMP Alpha-screen assay based Schild analysis; conditions: for Kb: read-out: pA2 (converted)
Melanocortin receptor 4 [4] = target: T2, Melanocortin receptor 4 (Mus musculus, UniProt P56450); experiment: Antagonist activity at mouse melanocortin receptor 4 expressed in HEK293 cells assessed as inhibition of NDP-MSH-induced cAMP accumulation incubated for 2 hrs by cAMP Alpha-screen assay based Schild analysis; conditions: for Kb: read-out: pA2 (converted)
T2 sequence (P56450 whole entry): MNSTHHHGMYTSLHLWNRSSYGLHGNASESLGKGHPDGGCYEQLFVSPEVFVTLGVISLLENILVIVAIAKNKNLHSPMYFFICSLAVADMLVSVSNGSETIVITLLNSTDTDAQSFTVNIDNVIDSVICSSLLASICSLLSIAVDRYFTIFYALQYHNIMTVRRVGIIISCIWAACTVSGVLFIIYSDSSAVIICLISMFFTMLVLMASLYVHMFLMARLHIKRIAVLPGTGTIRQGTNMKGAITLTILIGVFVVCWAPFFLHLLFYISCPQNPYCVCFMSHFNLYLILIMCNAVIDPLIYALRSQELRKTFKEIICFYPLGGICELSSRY

Melanocortin receptor 4 [5] = target: T2, Melanocortin receptor 4; experiment: Agonist activity at mouse MC4R expressed in HEK293 cells assessed as induction of cAMP level incubated for 2 hr by alphaScreen assay
Melanocortin receptor 5 = Melanocortin receptor 5 (Mus musculus, UniProt P41149); experiment: Agonist activity at mouse MC5R expressed in HEK293 cells assessed as induction of cAMP level at 100 uM incubated for 2 hr by alphaScreen assay
Sequence of Melanocortin receptor 5 (P41149 whole entry): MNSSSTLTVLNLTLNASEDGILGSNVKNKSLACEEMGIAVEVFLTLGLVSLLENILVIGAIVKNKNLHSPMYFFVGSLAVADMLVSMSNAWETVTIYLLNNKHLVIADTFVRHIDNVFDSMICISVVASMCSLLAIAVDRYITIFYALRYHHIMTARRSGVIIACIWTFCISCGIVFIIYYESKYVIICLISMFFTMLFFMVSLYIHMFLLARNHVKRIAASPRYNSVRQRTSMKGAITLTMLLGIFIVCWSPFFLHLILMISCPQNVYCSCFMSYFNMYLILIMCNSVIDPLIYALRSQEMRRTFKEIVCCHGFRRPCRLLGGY

[6] = target: Melanocortin receptor 3 (Mus musculus) (UniProt P33033); experiment: Agonist activity at mouse MC3R expressed in HEK293 cells assessed as induction of cAMP level at 100 uM incubated for 2 hr by alphaScreen assay relative to control
Sequence of Melanocortin receptor 3 (Mus musculus) (P33033 whole entry): as the sequence (P33033 whole entry) above

[7] = target: Melanocortin receptor 4 (Mus musculus) (UniProt P56450); experiment: Agonist activity at mouse MC4R expressed in HEK293 cells assessed as induction of cAMP level at 100 uM incubated for 2 hr by alphaScreen assay relative to control
Sequence of Melanocortin receptor 4 (Mus musculus) (P56450 whole entry): as the sequence (P56450 whole entry) above

[8] = target: Melanocyte-stimulating hormone receptor (Mus musculus, UniProt Q01727); experiment: Agonist activity at mouse MC1R expressed in HEK293 cells assessed as induction of cAMP level at 100 uM incubated for 2 hr by alphaScreen assay
Sequence of Melanocyte-stimulating hormone receptor (Q01727 whole entry): as the sequence (Q01727 whole entry, looked up) above

Work on CC(=O)N[C@H](Cc1ccc2ccccc2c1)C(=O)N[C@H](Cc1ccc2ccccc2c1)C(=O)N[C@H](Cc1ccc(I)cc1)C(=O)N[C@@H](CCCNC(=N)N)C(N)=O (Ac-[d2Nal][d2Nal][dPhe(4-I)]R-NH2) yielded an Activity [1] of 25%, an EC50 (Melanocortin receptor 3 [2]) greater than 100000 nM and a Kb (Melanocortin receptor 3 [3]) greater than 3160 nM. It also gave a Kb (Melanocortin receptor 4 [4]) greater than 3160 nM and an EC50 (Melanocortin receptor 4 [5]) greater than 100000 nM.

CC(=O)N[C@H](Cc1ccc2ccccc2c1)C(=O)N[C@H](Cc1ccc2ccccc2c1)C(=O)N[C@H](Cc1ccc(I)cc1)C(=O)N[C@H](CCCCN)C(N)=O (Ac-[d2Nal][d2Nal][dPhe(4-I)][dK]-NH2) showed an Activity [1] of 20%, an EC50 (Melanocortin receptor 3 [2]) greater than 100000 nM and an EC50 (Melanocortin receptor 5) greater than 100000 nM. The Kb (Melanocortin receptor 3 [3]) was greater than 3160 nM, the Kb (Melanocortin receptor 4 [4]) was greater than 3160 nM and the EC50 (Melanocortin receptor 4 [5]) was greater than 100000 nM.

CC(=O)N[C@H](Cc1ccc(I)cc1)C(=O)N[C@@H](CCCNC(=N)N)C(=O)N[C@@H](Cc1c[nH]c2ccccc12)C(=O)N[C@H](Cc1ccc2ccccc2c1)C(N)=O (Ac-[dPhe(4-I)]RW[d2Nal]-NH2) gave an Activity ([1]; filed as agonist) of 45%, an Activity [6] of 25% and an EC50 (Melanocortin receptor 5) greater than 100000 nM. The Ki (Melanocortin receptor 3 [3]) was 1000 nM, the Kb (Melanocortin receptor 3 [3]) was 1000 nM and the Ki (Melanocortin receptor 4 [4]) was 25 nM. The Kb (Melanocortin receptor 4 [4]) was 25.1 nM and the Activity [7] was 35%.

CC(=O)N[C@H](Cc1ccc(I)cc1)C(=O)N[C@@H](CCCNC(=N)N)C(=O)N[C@@H](Cc1c[nH]c2ccccc12)C(=O)N[C@H](CCCCN)C(N)=O (Ac-[dPhe(4-I)]RW[dK]-NH2) showed an EC50 [8] greater than 100000 nM, an EC50 (Melanocortin receptor 3 [2]) greater than 100000 nM and an EC50 (Melanocortin receptor 5) greater than 100000 nM. The Ki (Melanocortin receptor 3 [3]) was 630 nM, the Kb (Melanocortin receptor 3 [3]) was 631 nM and the Ki (Melanocortin receptor 4 [4]) was 25 nM. It also gave a Kb (Melanocortin receptor 4 [4]) of 25.1 nM and an EC50 (Melanocortin receptor 4 [5]) greater than 100000 nM.

Compound CC(=O)N[C@H](Cc1ccc(I)cc1)C(=O)N[C@@H](CCCNC(=N)N)C(=O)N[C@@H](Cc1ccc2ccccc2c1)C(=O)N[C@H](Cc1ccc2ccccc2c1)C(N)=O (Ac-[dPhe(4-I)]R[2Nal][d2Nal]-NH2) has an Activity ([1]; filed as agonist) of 55%, an EC50 (Melanocortin receptor 3 [2]) greater than 100000 nM and an EC50 (Melanocortin receptor 5) greater than 100000 nM. The Kb (Melanocortin receptor 3 [3]) was greater than 3160 nM, the Ki (Melanocortin receptor 4 [4]) was 200 nM and the Kb (Melanocortin receptor 4 [4]) was 200 nM. For the same compound, the EC50 (Melanocortin receptor 4 [5]) was greater than 100000 nM.

CC(=O)N[C@H](Cc1ccc(I)cc1)C(=O)N[C@@H](CCCNC(=N)N)C(=O)N[C@H](Cc1ccc(I)cc1)C(=O)N[C@@H](CCCNC(=N)N)C(N)=O (Ac-[dPhe(4-I)]R[dPhe(4-I)]R-NH2) gave an EC50 [8] of 7 nM, an EC50 (Melanocortin receptor 3 [2]) greater than 100000 nM and an EC50 (Melanocortin receptor 5) greater than 100000 nM. The Ki (Melanocortin receptor 3 [3]) was 40 nM, the Kb (Melanocortin receptor 3 [3]) was 39.8 nM and the Ki (Melanocortin receptor 4 [4]) was 3.2 nM. For the same compound, the Kb (Melanocortin receptor 4 [4]) was 3.16 nM and the EC50 (Melanocortin receptor 4 [5]) was greater than 100000 nM.

In the case of CC(=O)N[C@H](Cc1ccc(I)cc1)C(=O)N[C@@H](CCCNC(=N)N)C(=O)N[C@H](Cc1ccc(I)cc1)C(=O)N[C@H](CCCCN)C(N)=O (Ac-[dPhe(4-I)]R[dPhe(4-I)][dK]-NH2), the EC50 [8] is reported as 35 nM, the EC50 (Melanocortin receptor 3 [2]) is reported as greater than 100000 nM and the EC50 (Melanocortin receptor 5) is reported as greater than 100000 nM. The Ki (Melanocortin receptor 3 [3]) was 32 nM, the Kb (Melanocortin receptor 3 [3]) was 31.6 nM and the Ki (Melanocortin receptor 4 [4]) was 3.2 nM. It also gave a Kb (Melanocortin receptor 4 [4]) of 3.16 nM and an EC50 (Melanocortin receptor 4 [5]) greater than 100000 nM.

CC(=O)N[C@H](Cc1ccc(I)cc1)C(=O)N[C@H](Cc1ccc2ccccc2c1)C(=O)N[C@@H](Cc1c[nH]c2ccccc12)C(=O)N[C@H](CCCCN)C(N)=O (Ac-[dPhe(4-I)][d2Nal]W[dK]-NH2) was tested, and the Activity ([1]; filed as agonist) was 65%, the EC50 (Melanocortin receptor 3 [2]) was greater than 100000 nM and the EC50 (Melanocortin receptor 5) was greater than 100000 nM. It also gave a Ki (Melanocortin receptor 3 [3]) of 2000 nM, a Kb (Melanocortin receptor 3 [3]) of 2000 nM and a Ki (Melanocortin receptor 4 [4]) of 250 nM. The Kb (Melanocortin receptor 4 [4]) was 251 nM and the EC50 (Melanocortin receptor 4 [5]) was greater than 100000 nM.

In the case of CC(=O)N[C@H](Cc1ccc(I)cc1)C(=O)N[C@H](Cc1ccc2ccccc2c1)C(=O)N[C@@H](Cc1ccc2ccccc2c1)C(=O)N[C@@H](CCCNC(=N)N)C(N)=O (Ac-[dPhe(4-I)][d2Nal][2Nal]R-NH2), the EC50 (Melanocortin receptor 3 [2]) is reported as greater than 100000 nM, the EC50 (Melanocortin receptor 5) is reported as 800 nM and the Kb (Melanocortin receptor 3 [3]) is reported as greater than 3160 nM. It also gave a Ki (Melanocortin receptor 4 [4]) of 1600 nM, a Kb (Melanocortin receptor 4 [4]) of 1580 nM and an EC50 (Melanocortin receptor 4 [5]) greater than 100000 nM.

In the case of CC(=O)N[C@H](Cc1ccc(I)cc1)C(=O)N[C@H](Cc1ccc2ccccc2c1)C(=O)N[C@H](Cc1ccc2ccccc2c1)C(=O)N[C@@H](CCCNC(=N)N)C(N)=O (Ac-[dPhe(4-I)][d2Nal][d2Nal]R-NH2), the EC50 [8] is reported as greater than 100000 nM, the EC50 (Melanocortin receptor 3 [2]) is reported as greater than 100000 nM and the EC50 (Melanocortin receptor 5) is reported as 230 nM. It also gave a Kb (Melanocortin receptor 3 [3]) greater than 3160 nM, a Kb (Melanocortin receptor 4 [4]) greater than 3160 nM and an EC50 (Melanocortin receptor 4 [5]) greater than 100000 nM.

CC(=O)N[C@H](Cc1ccc(I)cc1)C(=O)N[C@H](Cc1ccc2ccccc2c1)C(=O)N[C@H](Cc1ccc2ccccc2c1)C(=O)N[C@H](CCCCN)C(N)=O (Ac-[dPhe(4-I)][d2Nal][d2Nal][dK]-NH2) was tested, and the EC50 (Melanocortin receptor 3 [2]) was greater than 100000 nM, the EC50 (Melanocortin receptor 5) was greater than 100000 nM and the Kb (Melanocortin receptor 3 [3]) was greater than 3160 nM. The Kb (Melanocortin receptor 4 [4]) was 501 nM and the EC50 (Melanocortin receptor 4 [5]) was greater than 100000 nM.

Compound CC(=O)N[C@H](Cc1ccc(I)cc1)C(=O)N[C@H](Cc1ccc2ccccc2c1)C(=O)N[C@H](Cc1ccc(I)cc1)C(=O)N[C@@H](CCCNC(=N)N)C(N)=O (Ac-[dPhe(4-I)][d2Nal][dPhe(4-I)]R-NH2) has an Activity ([1]; filed as agonist) of 40%, an EC50 (Melanocortin receptor 3 [2]) greater than 100000 nM and a Kb (Melanocortin receptor 3 [3]) greater than 3160 nM. The Kb (Melanocortin receptor 4 [4]) was greater than 3160 nM and the EC50 (Melanocortin receptor 4 [5]) was greater than 100000 nM.
